Where two headings read alike, the source gives them in different places.
Experiments:
[1] = Measurement of surface tension with a surface tension meter (Sigma 700, KSV Instruments); format: physicochemical
Description: Compound L9 isolated in Example 1 was dropped on a hydrophobic film, and surface tension variation was observed using a surface tension meter (Densitometer, Sigma 700 Densitometer (KSV Instruments Ltd., Finland)). Water was a control, and a culture medium and the size of compound L9 were compared. The numerical value of the surface tension was shown as (dyne/cm (or mN/m)). When a surfactant that has a hydrophobic moiety and a hydrophilic moiety is added to water, surface tension decreases. […] As the intermolecular interaction increases, the surface tension increases. Surface tensions of Compound L9 and known materials produced by bacteria (Table 2) and yeasts (Table 3) were measured, and the results are shown in Tables 2 and 3 below.

[2] = reference liquids of Table 1, no amount given; cited from earlier work

CCCCC[C@@H](O)C[C@@H](O)CC(=O)O[C@H](CCCCC)C[C@@H](O)CC(=O)O[C@H](CCCCC)C[C@@H](O)CC(=O)OCC(O)CO (stereo partly shown) [Compound L9]
Surface tension ([1]; amount of material 1.5 mg/L): 31.5 dyne/cm
Surface tension ([1]; at 1.5 mg/litter): 31.5 mN/m
degree of activity (surface tension) ([1]; summary statement, no amount given): 31 dyne/cm

OCC(O)CO [Glycerin]
Surface tension [2]: 63 dyne/cm

Flavolipid
Surface tension ([1]; amount of material 300 mg/L): 26.0 dyne/cm

Iturin
Surface tension ([1]; amount of material 20 mg/L): 43.0 dyne/cm

Rhamnolipid
Surface tension ([1]; amount of material 30 mg/L): 31.4 dyne/cm

Sophorolipid
Surface tension ([1]; amount of material 40 mg/L): 35.0 dyne/cm

Trehalos lipid
Surface tension ([1]; amount of material 25 mg/L): 24.1 dyne/cm

Trehalose lipid
Surface tension ([1]; amount of material 0.7 mg/L): 43.0 dyne/cm

— patent publication US8642793B1, “Biosurfactant produced by Aureobasidium pullulans” (Gyeongbuk Institute for Marine Bio-industry, priority 2012, dated 2014)
